Common to all, as to assay: growth of human tumour cells (NCI), 48 h
The subject of assay [1] is BT-549 breast.
Assay [2] has as its system MOLT-4 leukemia.
Assay [3] deals with SNB-19 CNS.
Assay [4] has as its system K-562 leukemia.
In assay [5] the test system is UO-31 renal.
Assay [6] concerns NCI-H522 lung.
The test system of assay [7] is EKVX NSCLC.
The test system of assay [8] is MCF7 breast.
Assay [9] has as its system SR leukemia.
In assay [10] the test system is NCI/ADR-RES ovarian.

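Interpolation was linear, between the two tested concentrations surrounding the appropriate level; five concentrations were tested over 48 hours in 96-well plates. Abbreviation: GI50, concentration required for 50% inhibition of growth. TGI marks complete inhibition of growth.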

Consider `CN(C)C(=O)O[C@@H]1CN[C@@H](C#Cc2cc3ncnc(Nc4ccc(OCc5cccc(F)c5)c(Cl)c4)c3s2)C1`, for which the GI50 is 7.93 µM in [1]; 6.73 µM in assay [2]; greater than 25 µM in [3]; greater than 25 µM in assay [4]; 5.22 µM in assay [5]; 2.14 µM in assay [6]. The GI50 is 5.14 µM in assay [7], greater than 25 µM in [8], 20.1 µM in assay [9] and greater than 25 µM in assay [10]. The TGI in assay [1] is greater than 21.4 µM; in assay [2], greater than 21.8 µM; in assay [3], greater than 25 µM; in assay [4], greater than 25 µM; in assay [5] it was greater than 20.9 µM; in assay [6], greater than 10.5 µM. The TGI was greater than 23.2 µM in [7], greater than 25 µM in assay [8], greater than 25 µM in assay [9] and greater than 25 µM in [10].

With `Cc1nc(C(N)=S)sc1C(=O)C/C(=N/N)C(=O)Nc1cccc(Cl)c1C`, the TGI in [1], in assay [2], in assay [3], in [4], in assay [5] and in [6] was greater than 100 µM in each case. Also, the TGI in assay [7], in assay [8], in assay [9] and in assay [10] was greater than 100 µM in each case.

For the compound `CCN(CCNc1ccc(C)c2sc3ccccc3c(=O)c12)CC(C)(C)O`, the GI50 in [1] is 15.3 µM; in assay [2], 6.26 µM; in assay [3], 11.9 µM; in [4] it was 2.94 µM; in assay [5], 7.34 µM; in [6], 14.9 µM. In addition, the GI50 is 20.1 µM in assay [7], 11.1 µM in [8], 4.76 µM in assay [9] and 14.1 µM in assay [10]. Besides, the TGI was 36.6 µM in assay [1]; greater than 46 µM in assay [2]; 25.9 µM in assay [3]; greater than 22.2 µM in assay [4]; 24.3 µM in assay [5]; 47.8 µM in [6]. For the same compound, the TGI in [7] was greater than 66.7 µM; in [8], 26.8 µM; in assay [9] it was greater than 100 µM; in assay [10] it was 56.1 µM.

As to `COc1ccc(CN2c3ccccc3CCc3ccccc32)cc1F`, the GI50 in [1] was 0.776 µM; in assay [2], 0.554 µM; in assay [3] it was 0.697 µM; in assay [4], 0.402 µM; in [5], 0.814 µM; in assay [6], 0.609 µM. The GI50 was 1.55 µM in assay [7], 0.352 µM in assay [8], 0.463 µM in assay [9] and 0.456 µM in assay [10]. In addition, the TGI in [1] was 41.2 µM; in [2], greater than 100 µM; in assay [3], greater than 100 µM; in assay [4], greater than 100 µM; in [5] it was greater than 100 µM; in assay [6], greater than 100 µM. Further, the TGI in assay [7], in assay [8], in [9] and in assay [10] was greater than 100 µM throughout.

On to `COc1cc(S(C)(=O)=O)ccc1Nc1nc2ccc(-c3ccc(NC(=O)[C@H](C)c4ccc(F)cc4)cc3)cn2n1`, for which the GI50 in [1] was greater than 63.8 µM; in assay [2], 1.18 µM; in [3] it was greater than 100 µM; in [4] it was greater than 78.7 µM; in [5] it was greater than 100 µM; in assay [6], greater than 100 µM. In addition, the GI50 is greater than 100 µM in [7], 0.749 µM in assay [8], 0.211 µM in [9] and greater than 20.6 µM in [10]. Also, the TGI in [1], in [2], in [3], in [4], in [5] and in [6] was greater than 100 µM throughout. Further, the TGI in assay [7], in [8], in assay [9] and in assay [10] was greater than 100 µM each time.

On to `O=C1Nc2cccc3cc(NCC(O)CCl)cc1c23` (stereo not given), for which the TGI was greater than 100 µM in [1]; 95.2 µM in assay [2]; greater than 100 µM in assay [3]; greater than 100 µM in assay [4]; 92.1 µM in assay [5]; greater than 100 µM in [6]. Moreover, the TGI in assay [7] is greater than 100 µM; in assay [8], greater than 100 µM; in assay [9] it was 48 µM; in [10] it was greater than 100 µM.

As for `Cn1c(=O)c2c(ncn2CN2CCN(Cn3cnc4c3c(=O)n(C)c(=O)n4C)CC2)n(C)c1=O`, the TGI is greater than 100 µM in [1]; 41.4 µM in assay [2]; greater than 100 µM in assay [3]; greater than 100 µM in assay [4]; greater than 100 µM in assay [5]; greater than 100 µM in [6]. Moreover, the TGI in assay [7] is greater than 100 µM; in assay [8] it was 35.7 µM; in assay [9] it was greater than 100 µM; in assay [10], greater than 100 µM.

For the compound `Cc1ccc(NC(=O)Cn2c(Br)nc3c2c(=O)n(C)c(=O)n3C)cc1`, the GI50 in [1] is 11.1 µM; in assay [2], 27.9 µM; in [3] it was 7.92 µM; in [4], 18.5 µM; in assay [5] it was 2.13 µM; in assay [6] it was 9.27 µM. Further, the GI50 was 10.7 µM in assay [7], 3.91 µM in [8], 8.96 µM in assay [9] and 9.75 µM in assay [10]. Besides, the TGI in assay [1] is 24 µM; in assay [2], greater than 100 µM; in assay [3] it was 23.7 µM; in [4], 74.5 µM; in assay [5], 6 µM; in assay [6], 36.3 µM. The TGI in assay [7] was 25.9 µM; in assay [8], 18.3 µM; in [9], 35.5 µM; in assay [10], 29.3 µM.

Consider `Cn1cc(CNCC2CCN(c3ncc(C(=O)NO)cn3)CC2)c2ccccc21`, for which the GI50 in assay [1] was 0.225 µM; in assay [2] it was less than 0.0135 µM; in assay [3], 0.0251 µM; in assay [4] it was less than 0.012 µM; in [5], 0.0247 µM; in [6], less than 0.01 µM. Also, the GI50 in [7] was 0.0255 µM; in [8], less than 0.01 µM; in assay [9] it was less than 0.0124 µM; in assay [10], 0.107 µM. The TGI in assay [1] is 14.3 µM; in [2] it was greater than 52.7 µM; in assay [3], 0.9 µM; in assay [4], greater than 46.9 µM; in assay [5], 0.447 µM; in assay [6] it was 0.0615 µM. For the same compound, the TGI in assay [7] is 23.4 µM; in assay [8], 2.53 µM; in assay [9], greater than 53.9 µM; in [10], 5.59 µM.

For the origin of these results see PubChem BioAssay (NCI).
